The target of one test is PI3Kα (Homo sapiens (Human), UniProt P42336). The experiment in a line: PI3K enzyme assay, [γ-33P]ATP filter plate (Example A2), PI3Kα. Format: biochemical. To be noted: read-out: PI3Kα^c IC50. How it is done:
Materials: Lipid kinase substrate, phosphoinositol-4,5-bisphosphate (PIP2), was purchased from Echelon Biosciences (Salt Lake City, Utah). PI3K isoforms α, β, δ and γ were purchased from Millipore (Bedford, Mass.). […] The kinase reaction was conducted in clear-bottom 96-well plate from Thermo Fisher Scientific in a final volume of 24 μL. Inhibitors were first diluted serially in DMSO and added to the plate wells before the addition of other reaction components. The final concentration of DMSO in the assay was 0.5%. The PI3K assays were carried out at room temperature in 20 mM MOPS, pH 6.7, 10 mM MgCl2, 5 mM DTT and CHAPS 0.03%. The reaction mixture was prepared containing 50 μM PIP2, kinase and varying concentration of inhibitors. Reactions were initiated by the addition of ATP containing 2.2 μCi [γ-^33P]ATP to a final concentration of 1000 μM. […] Reactions were incubated for 180 min and terminated by the addition of 100 μL of 1 M potassium phosphate pH 8.0, 30 mM EDTA quench buffer. […] The filter plate was aspirated on a Millipore Manifold under vacuum and washed with 18×200 μL wash buffer containing 1 M potassium phosphate pH 8.0 and 1 mM ATP. After drying by aspiration and blotting, the plate was air dried in an incubator at 37° C. overnight. […] After the plate sealing, the radioactivity of the product was determined by scintillation counting on Topcount (Perkin-Elmer). […]

In another test the target is PI3Kβ (Homo sapiens (Human), UniProt P42338). The experiment in a line: PI3K enzyme assay, [γ-33P]ATP filter plate (Example A2), PI3Kβ. Format: biochemical. The following applies: read-out: PI3Kβ^c IC50. How it is done: Materials: Lipid kinase substrate, phosphoinositol-4,5-bisphosphate (PIP2), was purchased from Echelon Biosciences (Salt Lake City, Utah). PI3K isoforms α, β, δ and γ were purchased from Millipore (Bedford, Mass.). ATP, MgCl2, DTT, EDTA, MOPS and CHAPS were purchased from Sigma—Aldrich (St. Louis, Mo.). The kinase reaction was conducted in clear-bottom 96-well plate from Thermo Fisher Scientific in a final volume of 24 μL. Inhibitors were first diluted serially in DMSO and added to the plate wells before the addition of other reaction components. The final concentration of DMSO in the assay was 0.5%. The PI3K assays were carried out at room temperature in 20 mM MOPS, pH 6.7, 10 mM MgCl2, 5 mM DTT and CHAPS 0.03%. The reaction mixture was prepared containing 50 μM PIP2, kinase and varying concentration of inhibitors. Reactions were initiated by the addition of ATP containing 2.2 μCi [γ-^33P]ATP to a final concentration of 1000 μM. […] Reactions were incubated for 180 min and terminated by the addition of 100 μL of 1 M potassium phosphate pH 8.0, 30 mM EDTA quench buffer. […] After the plate sealing, the radioactivity of the product was determined by scintillation counting on Topcount (Perkin-Elmer). […]
Sequence of PI3Kβ (P42338 whole entry, species assumed, canonical isoform): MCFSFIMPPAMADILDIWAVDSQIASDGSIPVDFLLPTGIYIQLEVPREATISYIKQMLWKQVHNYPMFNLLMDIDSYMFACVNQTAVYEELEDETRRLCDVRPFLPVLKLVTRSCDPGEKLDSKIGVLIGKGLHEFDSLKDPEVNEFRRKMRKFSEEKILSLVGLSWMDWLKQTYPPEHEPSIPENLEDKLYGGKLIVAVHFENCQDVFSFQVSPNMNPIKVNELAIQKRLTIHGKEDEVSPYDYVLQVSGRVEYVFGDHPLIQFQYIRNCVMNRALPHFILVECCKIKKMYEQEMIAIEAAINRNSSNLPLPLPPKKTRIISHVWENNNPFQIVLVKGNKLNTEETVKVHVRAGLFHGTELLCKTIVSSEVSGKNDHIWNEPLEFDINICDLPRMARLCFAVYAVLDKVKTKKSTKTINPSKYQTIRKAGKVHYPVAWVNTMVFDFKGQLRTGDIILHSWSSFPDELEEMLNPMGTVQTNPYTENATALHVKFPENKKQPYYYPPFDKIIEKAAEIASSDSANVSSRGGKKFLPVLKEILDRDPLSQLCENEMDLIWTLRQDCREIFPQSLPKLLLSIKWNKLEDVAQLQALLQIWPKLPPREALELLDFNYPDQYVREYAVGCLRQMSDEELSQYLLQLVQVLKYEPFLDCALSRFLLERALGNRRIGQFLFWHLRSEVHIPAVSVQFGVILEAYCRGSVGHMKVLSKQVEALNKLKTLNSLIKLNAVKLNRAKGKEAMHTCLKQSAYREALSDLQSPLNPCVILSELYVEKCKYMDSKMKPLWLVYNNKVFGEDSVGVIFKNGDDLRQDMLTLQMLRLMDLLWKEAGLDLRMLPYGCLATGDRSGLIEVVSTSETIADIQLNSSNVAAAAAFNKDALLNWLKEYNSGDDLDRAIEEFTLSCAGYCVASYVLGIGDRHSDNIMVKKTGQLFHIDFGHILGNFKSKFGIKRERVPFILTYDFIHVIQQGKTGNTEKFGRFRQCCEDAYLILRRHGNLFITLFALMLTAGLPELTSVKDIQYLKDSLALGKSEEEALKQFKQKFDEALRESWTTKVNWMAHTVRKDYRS
Sequence of PI3Kβ (P27986 whole entry partner, species assumed, canonical isoform): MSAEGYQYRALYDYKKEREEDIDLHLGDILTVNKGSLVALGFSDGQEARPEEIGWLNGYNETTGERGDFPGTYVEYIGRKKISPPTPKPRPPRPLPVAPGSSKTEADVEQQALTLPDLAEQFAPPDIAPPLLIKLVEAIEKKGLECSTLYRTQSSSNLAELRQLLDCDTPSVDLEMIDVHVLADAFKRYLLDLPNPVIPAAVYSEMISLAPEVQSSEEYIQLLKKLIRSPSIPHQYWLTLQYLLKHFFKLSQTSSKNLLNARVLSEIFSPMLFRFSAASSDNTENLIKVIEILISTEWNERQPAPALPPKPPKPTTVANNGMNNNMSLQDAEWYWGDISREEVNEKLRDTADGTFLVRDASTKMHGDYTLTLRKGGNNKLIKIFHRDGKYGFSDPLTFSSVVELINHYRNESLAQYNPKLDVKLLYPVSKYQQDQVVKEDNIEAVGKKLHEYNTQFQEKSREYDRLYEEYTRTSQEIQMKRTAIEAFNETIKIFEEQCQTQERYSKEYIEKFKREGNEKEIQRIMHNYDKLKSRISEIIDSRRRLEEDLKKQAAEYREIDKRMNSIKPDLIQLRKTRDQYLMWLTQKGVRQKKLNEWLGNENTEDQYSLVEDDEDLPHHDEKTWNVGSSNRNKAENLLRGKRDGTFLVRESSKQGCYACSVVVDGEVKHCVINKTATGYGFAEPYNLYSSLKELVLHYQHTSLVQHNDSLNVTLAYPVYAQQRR

A further test concerns the target PI3Kγ (Homo sapiens (Human), UniProt P48736). The experiment in a line: PI3K enzyme assay, [γ-33P]ATP filter plate (Example A2), PI3Kγ. In kind it is biochemical. The following applies: read-out: PI3Kγ^c IC50. As for the experimental part: Materials: Lipid kinase substrate, phosphoinositol-4,5-bisphosphate (PIP2), was purchased from Echelon Biosciences (Salt Lake City, Utah). PI3K isoforms α, β, δ and γ were purchased from Millipore (Bedford, Mass.). ATP, MgCl2, DTT, EDTA, MOPS and CHAPS were purchased from Sigma—Aldrich (St. Louis, Mo.).
The kinase reaction was conducted in clear-bottom 96-well plate from Thermo Fisher Scientific in a final volume of 24 μL. Inhibitors were first diluted serially in DMSO and added to the plate wells before the addition of other reaction components. The final concentration of DMSO in the assay was 0.5%. The PI3K assays were carried out at room temperature in 20 mM MOPS, pH 6.7, 10 mM MgCl2, 5 mM DTT and CHAPS 0.03%. The reaction mixture was prepared containing 50 μM PIP2, kinase and varying concentration of inhibitors. Reactions were initiated by the addition of ATP containing 2.2 μCi [γ-^33P]ATP to a final concentration of 1000 μM. The final concentration of PI3K isoforms α, β, δ and γ in the assay were 1.3, 9.4, 2.9 and 10.8 nM respectively. Reactions were incubated for 180 min and terminated by the addition of 100 μL of 1 M potassium phosphate pH 8.0, 30 mM EDTA quench buffer. […] After the plate sealing, the radioactivity of the product was determined by scintillation counting on Topcount (Perkin-Elmer). […]

The test system of the next test is B cells. Put plainly: B cell proliferation assay (Example B1). Format: cell-based. To be noted: purified human B cells, anti-human IgM, [3H]-thymidine. How it is done:
To acquire B cells, human PBMC were isolated from the peripheral blood of normal, drug free donors by standard density gradient centrifugation on Ficoll-Hypague (GE Healthcare, Piscataway, N.J.) and incubated with anti-CD19 microbeads (Miltenyi Biotech, Auburn, Calif.). The B cells were then purified by positive immunosorting using an autoMacs (Miltenyi Biotech) according to the manufacturer's instruction.
The purified B cells (2×10^5/well/200 μL) were cultured in 96-well ultra-low binding plates (Corning, Corning, N.Y.) in RPMI1640, 10% FBS and goat F(ab′)2 anti-human IgM ([…]) (Invitrogen, Carlsbad, Calif.), in the presence of different amount of test compounds, […] [^3H]-thymidine (1 μCi/well) (PerkinElmer, Boston, Mass.) in PBS was then added to the B cell cultures for an additional 12 hrs before the incorporated radioactivity was separated by filtration with water through GF/B filters (Packard Bioscience, Meriden, Conn.) and measured by liquid scintillation counting with a TopCount (Packard Bioscience). […] See Table 2 for data related to compounds of the invention.

In test [1] the test system is Pfeiffer cell line (diffuse large B cell lymphoma). Put plainly: Pfeiffer cell proliferation assay (Example B2). Format: cell-based. To be noted: Pfeiffer cells, [3H]-thymidine. How it is done: Pfeiffer cell line (diffuse large B cell lymphoma) was purchased from ATCC (Manassas, Va.) and maintained in the culture medium recommended (RPMI and 10% FBS). To measure the anti-proliferation activity of the PI3Kδ submittals, the Pfeiffer cells were plated with the culture medium (2×10^3 cells/well/per 200 μl) into 96-well ultra-low binding plates (Corning, Corning, N.Y.), in the presence or absence of a concentration range of test compounds. After 3-4 days, [^3H]-thymidine (1 μCi/well) (PerkinElmer, Boston, Mass.) in PBS was then added to the cell culture for an additional 12 hrs before the incorporated radioactivity was separated by filtration with water through GF/B filters (Packard Bioscience, Meridenj, Conn.) and measured by liquid scintillation counting with a TopCount (Packard Bioscience). See Table 3 for data related to compounds of the invention.

Sequence of PI3Kγ (P48736 whole entry, species assumed, canonical isoform): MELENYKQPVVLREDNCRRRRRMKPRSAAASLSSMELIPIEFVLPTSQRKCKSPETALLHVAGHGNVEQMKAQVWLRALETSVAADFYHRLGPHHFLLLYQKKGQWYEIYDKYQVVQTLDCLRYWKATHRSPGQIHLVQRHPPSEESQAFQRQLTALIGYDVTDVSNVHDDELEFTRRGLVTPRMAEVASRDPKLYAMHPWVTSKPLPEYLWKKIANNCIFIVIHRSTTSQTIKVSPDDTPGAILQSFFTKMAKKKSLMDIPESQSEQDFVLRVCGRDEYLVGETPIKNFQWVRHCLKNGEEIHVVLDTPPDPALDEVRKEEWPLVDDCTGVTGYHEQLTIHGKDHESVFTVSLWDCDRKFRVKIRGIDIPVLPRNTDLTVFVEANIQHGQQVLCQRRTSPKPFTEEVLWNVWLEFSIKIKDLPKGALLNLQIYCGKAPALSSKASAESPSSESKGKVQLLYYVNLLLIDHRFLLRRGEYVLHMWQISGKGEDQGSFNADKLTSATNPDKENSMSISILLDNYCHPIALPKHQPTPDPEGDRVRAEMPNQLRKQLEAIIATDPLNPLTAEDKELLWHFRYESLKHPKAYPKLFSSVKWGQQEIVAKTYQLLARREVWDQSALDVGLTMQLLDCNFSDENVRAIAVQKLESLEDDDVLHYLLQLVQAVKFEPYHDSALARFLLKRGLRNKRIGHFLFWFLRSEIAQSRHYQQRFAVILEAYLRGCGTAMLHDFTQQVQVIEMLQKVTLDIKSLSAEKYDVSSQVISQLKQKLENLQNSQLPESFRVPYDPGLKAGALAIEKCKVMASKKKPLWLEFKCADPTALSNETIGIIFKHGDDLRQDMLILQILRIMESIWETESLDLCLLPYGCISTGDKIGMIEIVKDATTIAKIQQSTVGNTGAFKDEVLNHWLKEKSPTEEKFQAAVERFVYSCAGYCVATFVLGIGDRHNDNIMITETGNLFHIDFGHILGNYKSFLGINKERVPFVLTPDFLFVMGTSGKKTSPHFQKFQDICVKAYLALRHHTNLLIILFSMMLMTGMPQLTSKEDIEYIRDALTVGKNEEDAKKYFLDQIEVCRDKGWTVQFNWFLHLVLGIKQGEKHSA
Sequence of PI3Kα (P42336 whole entry, species assumed, canonical isoform): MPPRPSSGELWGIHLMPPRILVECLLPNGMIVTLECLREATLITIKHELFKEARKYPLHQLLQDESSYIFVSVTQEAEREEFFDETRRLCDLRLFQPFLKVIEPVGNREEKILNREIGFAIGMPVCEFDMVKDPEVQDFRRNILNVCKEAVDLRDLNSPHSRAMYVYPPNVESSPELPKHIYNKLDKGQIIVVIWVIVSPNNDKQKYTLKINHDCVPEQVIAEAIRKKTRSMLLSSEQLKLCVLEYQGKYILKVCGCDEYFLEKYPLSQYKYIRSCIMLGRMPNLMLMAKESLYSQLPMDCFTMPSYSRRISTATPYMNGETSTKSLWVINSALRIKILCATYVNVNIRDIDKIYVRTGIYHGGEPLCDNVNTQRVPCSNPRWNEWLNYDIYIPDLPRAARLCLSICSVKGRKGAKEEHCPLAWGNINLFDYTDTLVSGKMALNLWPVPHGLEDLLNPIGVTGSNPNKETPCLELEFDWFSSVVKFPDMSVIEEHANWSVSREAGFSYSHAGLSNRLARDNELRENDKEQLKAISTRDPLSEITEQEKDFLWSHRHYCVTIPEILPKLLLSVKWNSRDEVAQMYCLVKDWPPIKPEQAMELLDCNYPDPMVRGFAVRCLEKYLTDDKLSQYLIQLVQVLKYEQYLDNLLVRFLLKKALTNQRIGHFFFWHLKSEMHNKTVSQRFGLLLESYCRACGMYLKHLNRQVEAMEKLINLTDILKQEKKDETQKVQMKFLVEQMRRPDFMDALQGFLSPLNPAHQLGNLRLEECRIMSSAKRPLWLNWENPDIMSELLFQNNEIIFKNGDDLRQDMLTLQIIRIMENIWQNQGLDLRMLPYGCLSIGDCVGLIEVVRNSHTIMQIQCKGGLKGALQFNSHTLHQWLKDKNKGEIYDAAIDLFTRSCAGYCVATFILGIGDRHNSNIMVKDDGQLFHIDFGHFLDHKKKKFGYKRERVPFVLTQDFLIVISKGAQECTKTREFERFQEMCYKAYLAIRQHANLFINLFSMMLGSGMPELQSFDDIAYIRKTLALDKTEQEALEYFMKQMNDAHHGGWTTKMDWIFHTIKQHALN
Sequence of PI3Kα (P27986 whole entry partner, species assumed, canonical isoform): as the sequence (P27986 whole entry partner, species assumed, canonical isoform) above

The term IC50 denotes the concentration that inhibits the measured activity by half. On to `Cc1csc2nc(C(C)Nc3ncnc4[nH]cnc34)c(-c3cc(F)cc(F)c3)c(=O)n12` (single isomer, unassigned) [Example 44, 6-(3,5-difluorophenyl)-3-methyl-7-[1-(9H-purin-6-ylamino)ethyl]-5H-[1,3]thiazolo[3,2-a]pyrimidin-5-one], for which the IC50 on PI3Kα, at PI3Kβ and on PI3Kγ was greater than 500 nM each time.
Take `CCC(Nc1ncnc2[nH]cnc12)c1nc2cccc(C)n2c(=O)c1-c1cccnc1F` (centres unmarked) [Example 6, 3-(2-fluoropyridin-3-yl)-6-methyl-2-[1-(9H-purin-6-ylamino)propyl]-4H-pyrido[1,2-a]pyrimidin-4-one]: the IC50 in the test on B cells (B-cell) is 50 to 100 nM; in test [1] (Homo sapiens, Pfeiffer), 100 to 500 nM.
On the same counts, the results for `CCC(Nc1ncnc2[nH]cnc12)c1nc2cccc(C)n2c(=O)c1-c1cn[nH]c1` (centres unmarked) [Example 7, 6-methyl-2-[1-(9H-purin-6-ylamino)propyl]-3-(1H-pyrazol-4-yl)-4H-pyrido[1,2-a]pyrimidin-4-one] are greater than 500 nM and 500 to 1000 nM.
On the same counts, the results for `Cc1csc2nc(C(C)Nc3ncnc4[nH]cnc34)c(-c3ccccc3)c(=O)n12` (centres unmarked) [Example 8, 3-methyl-6-phenyl-7-[1-(9H-purin-6-ylamino)ethyl]-5H-[1,3]thiazolo[3,2-a]pyrimidin-5-one] are less than 50 nM and less than 50 nM.
As to `Cc1csc2nc(C(C)Nc3nc(N)nc4[nH]cnc34)c(-c3ccccc3)c(=O)n12` (centres unmarked) [Example 9, 7-{1-[(2-amino-9H-purin-6-yl)amino]ethyl}-3-methyl-6-phenyl-5H-[1,3]thiazolo[3,2-a]pyrimidin-5-one], the IC50 with B cells (B-cell) was less than 50 nM; in test [1] (Homo sapiens, Pfeiffer), less than 50 nM.
As to `Cc1csc2nc(C(C)Nc3ncnc4[nH]cnc34)c(-c3cccc(F)c3)c(=O)n12` (centres unmarked) [Example 10, 6-(3-fluorophenyl)-3-methyl-7-[1-(9H-purin-6-ylamino)ethyl]-5H-[1,3]thiazolo[3,2-a]pyrimidin-5-one], the IC50 is less than 50 nM in the test on B cells (B-cell) and less than 50 nM in test [1] (Homo sapiens, Pfeiffer).
Turning to `Cc1csc2nc(C(C)Nc3nc(N)nc4[nH]cnc34)c(-c3cccc(F)c3)c(=O)n12` (centres unmarked) [Example 11, 7-{1-[(2-amino-9H-purin-6-yl)amino]ethyl}-6-(3-fluorophenyl)-3-methyl-5H-[1,3]thiazolo[3,2-a]pyrimidin-5-one], the IC50 with B cells (B-cell) was less than 50 nM; in test [1] (Homo sapiens, Pfeiffer), less than 50 nM.
Consider `Cc1csc2nc(C(C)Nc3ncnc4[nH]cnc34)c(-c3cccc(F)c3)c(=O)n12` (centres unmarked) [Example 30, 6-(3-fluorophenyl)-3-methyl-7-[1-(9H-purin-6-ylamino)ethyl]-5H-[1,3]thiazolo[3,2-a]pyrimidin-5-one], for which the IC50 (with B cells; in test [1]) was less than 50 nM in each case.

Values taken from US10428087B2, “Pyrimidinones as PI3K inhibitors” (Incyte Corporation, priority 2009, dated 2019).
